# Results reported in patent publication US10758744B2, “Combination of an oxidant and a photoactivator for the wounds” (KLOX TECHNOLOGIES INC., priority 2008, dated 2020).
# Tested on: Hep G2 human hepatocellular carcinoma cells
# Conditions: 24 hours, 0.001 to 100 μM, compared to untreated cells
# Experimental: Hep G2 cells were treated for 24 hours with increasing concentrations (0.001 to 100 μM) of Eosin Y, or left untreated (CTL).
# Hep G2 cells were treated for 24 hours with increasing concentrations (0.001 to 100 μM) of Erythrosine B, or left untreated (CTL). Staurosporine (STS) was used as a positive control inducing cellular mortality.
# The toxicity of the photoactivators Eosin Y and Erythrosine B was evaluated by measuring the cytotoxicity of these compounds on human cells. Hep G2 human hepatocellular carcinoma cells with an epithelial morphology were treated for 24 hours with increasing concentrations (0.001 to 100 μM) of Eosin Y or Erythrosine B, and the cellular survival was evaluated.
structure (smiles),measurement,value
CN[C@@H]1C[C@H]2O[C@@](C)([C@@H]1OC)n1c3ccccc3c3c4c(c5c6ccccc6n2c5c31)C(=O)NC4 [Staurosporine],cellular viability,caused a dose-dependent effect
